Patent US12708641B2 (priority 2020, dated 2026)

How the values were obtained:
Format in all cases: cell-based
[1] = system: HEV Genotype 3 replicon Kernow-C1 p6/luc; assay: antiviral activity against HEV Genotype 3 replicon Kernow-C1 p6/luc in Huh7 cells (Gaussia luciferase); conditions: Huh-7, 96 h, 4 days, 4PL model, two experiments, read-out: relative EC50
[2] = system: rat HEV replicon LA-B350/luc; assay: antiviral activity against rat HEV replicon LA-B350/luc in Huh7 cells (Gaussia luciferase); conditions: Huh-7, 72 h, 3 days, 50% reduction in Luc signal, two experiments
[3] = viability evaluation (MTS/PMS) of replicon RNA-transfected Huh7 cells, Example 2; conditions: human, highest tested concentration 50 μM
Source text: Obtained values are expressed as percent inhibition of untreated RNA-transfected control condition.

[4] = viability evaluation (MTS/PMS) of Kernow-C1 p6/luc RNA-transfected Huh7 cells, Example 3; conditions: human, highest tested concentration 50 μM, read-out: relative CC50
Procedure: For viability evaluation, medium was removed and cells were subsequently incubated with MTS/PMS solution (3-(4,5-dimethylthiazol-2-yl)-5-(3-carboxymethoxyphenyl)-2-(4-sulfophenyl)-2H-tetrazolium/phenazinemethosulfate), which is metabolized to produce a brown, water-soluble product that is quantified after 1 h at 37° C. by absorbance read-out at 498 nm. Obtained values are expressed as percentage of untreated RNA-transfected control condition.

| Structure (SMILES) | EC50 [1] [nM] | EC50 [2] [nM] | CC50 [3] [nM] | CC50 [4] [nM] |
| --- | --- | --- | --- | --- |
| CC(C)OC(=O)OCOP(=O)(OCOC(=O)OC(C)C)OC[C@@]1(F)O[C@@H](n2ccc(=O)[nH]c2=O)[C@](C)(F)[C@@H]1O [Compound 11] | 720 | 7300 | – | – |
| C=CCOP1(=O)OC[C@@]2(F)O[C@@H](n3cnc4c(OCC)nc(N)nc43)[C@](C)(F)[C@@H]2O1 (stereo partly drawn) [Compound 10] | 1300 | 5700 | > 50000 | – |
| CCOc1nc(N)nc2c1ncn2[C@@H]1O[C@](F)(COP(=O)(OCOC(=O)OC(C)C)OCOC(=O)OC(C)C)[C@@H](O)[C@@]1(C)O [Compound 6] | 26 | 23 | – | – |
| CCOc1nc(N)nc2c1ncn2[C@@H]1O[C@](F)(CO[P@](=O)(N[C@@H](C)C(=O)OC2CCCCC2)Oc2ccccc2)[C@@H](O)[C@@]1(C)F [Compound 1] | 13 | < 0.64 | > 50000 | ≤ 50000 |
| CCOc1nc(N)nc2c1ncn2[C@@H]1O[C@](F)(COP(=O)(N[C@@H](C)C(=O)OC2CCCCC2)Oc2ccccc2)[C@@H](O)[C@@]1(C)O (stereo partly drawn) [Compound 2] | 11 | 8.9 | – | – |
| CC(C)OC(=O)OCOP(=O)(OCOC(=O)OC(C)C)OC[C@@]1(F)O[C@@H](n2ccc(=O)[nH]c2=O)[C@](C)(O)[C@@H]1O [Compound 9] | > 50000 | 4800 | – | – |
| CCOc1nc(N)nc2c1ncn2[C@@H]1O[C@](F)(COP(=O)(OCOC(=O)OC(C)C)OCOC(=O)OC(C)C)[C@@H](O)[C@@]1(C)F [Compound 3] | 12 | 9.9 | – | – |
| CCOc1nc(N)nc2c1ncn2[C@@H]1O[C@](F)(COP(=O)(N[C@@H](C)C(=O)OC(C)C)Oc2ccccc2)[C@@H](O)[C@@]1(C)F (stereo partly drawn) [Compound 4] | 6.5 | 36 | > 50000 | – |
| CC(C)OC(=O)[C@H](C)N[P@](=O)(OC[C@@]1(F)O[C@@H](n2ccc(=O)[nH]c2=O)[C@](C)(O)[C@@H]1O)Oc1ccccc1 [Compound 7] | 42 | 110 | – | – |
| CCOc1nc(N)nc2c1ncn2[C@@H]1O[C@]2(F)CO[P@@](=O)(N[C@H](C)C(=O)OC(C)C)O[C@H]2[C@@]1(C)F [Compound 8] | 220 | 860 | – | – |
